# Target: T1, Human PPARα (Homo sapiens, UniProt Q07869)
# T1 construct: host or cells: proprietary non-human mammalian cells
# T1 sequence (Q07869 1-468): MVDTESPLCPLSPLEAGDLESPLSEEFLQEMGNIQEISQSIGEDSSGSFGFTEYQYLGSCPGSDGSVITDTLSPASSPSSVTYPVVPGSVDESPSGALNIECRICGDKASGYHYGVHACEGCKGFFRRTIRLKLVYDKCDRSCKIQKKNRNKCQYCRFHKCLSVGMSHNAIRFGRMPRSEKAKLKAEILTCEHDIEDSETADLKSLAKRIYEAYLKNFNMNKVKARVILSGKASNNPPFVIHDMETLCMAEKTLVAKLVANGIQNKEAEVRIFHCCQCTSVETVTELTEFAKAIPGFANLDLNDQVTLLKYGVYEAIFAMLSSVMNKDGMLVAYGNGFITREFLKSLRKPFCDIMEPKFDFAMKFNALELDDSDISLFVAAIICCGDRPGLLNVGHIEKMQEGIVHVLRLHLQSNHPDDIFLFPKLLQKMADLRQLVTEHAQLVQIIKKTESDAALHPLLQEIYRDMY
# Experiment: Human PPARα Reporter Assay (luciferase)
# Assay type: cell-based
# Settings: human PPARα reporter cells, overnight incubation, antagonism; read-out: Luciferase IC50
# In short: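 Agonist or antagonist activity read as luciferase light from engineered reporter cells carrying human PPARα and a responsive reporter gene. Cells got compound immediately on dispensing, incubated overnight, then treatment media swapped for luciferase detection reagent.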
row,Compound,IC50
1,"CCn1c(CCCc2ccc(-c3cc(NS(C)(=O)=O)ccn3)cc2)nn(Cc2ccc(C(C)(C)C)cc2)c1=O [Example 40, 1-{[4-(tert-Butyl)phenyl]methyl}-4-ethyl-3-[3-(4-{4-[(methylsulfonyl)amino](2-pyridyl)}phenyl)propyl]-1,2,4-triazolin-5-one]",408 nM
2,"CCn1c(CCCc2ccc(-c3cc(OC)c(NS(=O)(=O)c4ccccc4)cn3)cc2)nn(Cc2ccc(C(C)(C)C)cc2)c1=O [Example 112, 1-{[4-(tert-Butyl)phenyl]methyl}-4-ethyl-3-[3-(4-{4-methoxy-5-[(phenylsulfonyl)amino](2-pyridyl)}phenyl)propyl]-1,2,4-triazolin-5-one]",816 nM
3,"CCn1c(CCCc2ccc(-c3cnc(NS(=O)(=O)Cc4ccccc4)cn3)cc2)nn(Cc2ccc(C(C)(C)C)cc2)c1=O [Example 119, N-(5-(4-(3-(1-(4-(tert-Butyl)benzyl)-4-ethyl-5-oxo-4,5-dihydro-1H-1,2,4-triazol-3-yl)propyl)phenyl)pyrazin-2-yl)-1-phenylmethanesulfonamide]",941 nM
4,"CCn1c(CCCc2ccc(-c3ccc(NS(=O)(=O)c4ccccc4)c(C)n3)cc2)nn(Cc2ccc(C(C)(C)C)cc2)c1=O [Example 124, 1-{[4-(tert-Butyl)phenyl]methyl}-4-ethyl-3-[3-(4-{6-methyl-5-[(phenylsulfonyl)amino](2-pyridyl)}phenyl)propyl]-1,2,4-triazolin-5-one]",290 nM
5,"CCn1c(COCc2ccc(-c3cccc(CC(=O)O)c3)cc2)nn(Cc2ccc(C(C)(C)C)cc2)c1=O [Example 27, 2-(4′(((1-(4-(tert-Butyl)benzyl)-4-ethyl-5-oxo-4,5-dihydro-1H-1,2,4-triazol-3-yl)methoxy)methyl)-[1,1′-biphenyl]-3-yl)acetic acid]",2170 nM
6,"CCn1c(CCCc2ccc(-c3ccc(OC)c(C4(C(=O)O)CCC4)c3)cc2)nn(Cc2ccc(C(C)(C)C)cc2)c1=O [Example 133, 1-(4′-(3-(1-(4-(tert-Butyl)benzyl)-4-ethyl-5-oxo-4,5-dihydro-1H-1,2,4-triazol-3-yl)propyl)-4-methoxy-[1,1′-biphenyl]-3-yl)cyclobutanecarboxylic acid]",597 nM
7,"CCn1c(CCCc2ccc(-c3ccc(NS(=O)(=O)c4ccccc4)c(OC)n3)cc2)nn(Cc2ccc(C(C)(C)C)cc2)c1=O [Example 98, 1-{[4-(tert-Butyl)phenyl]methyl}-4-ethyl-3-[3-(4-{6-methoxy-5-[(phenylsulfonyl)amino](2-pyridyl)}phenyl)propyl]-1,2,4-triazolin-5-one]",264 nM
8,"CCn1c(CCCc2ccc(-c3cccc(C(=O)C(=O)NC4CC4)c3)cc2)nn(Cc2ccc(C(C)(C)C)cc2)c1=O [Example 57, 2-(4′-(3-(1-(4-(tert-Butyl)benzyl)-4-ethyl-5-oxo-4,5-dihydro-1H-1,2,4-triazol-3-yl)propyl)-[1,1′-biphenyl]-3-yl)-N-cyclopropyl-2-oxoacetamide]",175 nM
9,"CCn1c(CCCc2ccc(-c3cccc(NC(=O)NS(=O)(=O)c4ccccc4)n3)cc2)nn(Cc2ccc(C(C)(C)C)cc2)c1=O [Example 154, N-((6-(4-(3-(1-(4-(tert-Butyl)benzyl)-4-ethyl-5-oxo-4,5-dihydro-1H-1,2,4-triazol-3-yl)propyl)phenyl)pyridin-2-yl)carbamoyl)benzenesulfonamide]",241 nM
10,"CCC(=O)NS(=O)(=O)c1cccc(-c2ccc(CCCc3nn(Cc4ccc(C(C)(C)C)cc4)c(=O)n3CC)cc2)c1 [Example 103, N-((4′-(3-(1-(4-(tert-Butyl)benzyl)-4-ethyl-5-oxo-4,5-dihydro-1H-1,2,4-triazol-3-yl)propyl)-[1,1′-biphenyl]-3-yl)sulfonyl)propionamide]",436 nM
11,"CCCC(=O)Nc1cccc(-c2ccc(CCCc3nn(Cc4ccc(C(C)(C)C)cc4)c(=O)n3CC)cc2)n1 [Example 100, N-(6-{4-[3-(1-{[4-(tert-Butyl)phenyl]methyl}-4-ethyl-5-oxo-1,2,4-triazolin-3-yl)propyl]phenyl}-2-pyridyl)butanamide]",712 nM
12,"CC(C)n1c(CCCc2ccc(-c3cccc(CC(=O)O)c3)cc2)nn(Cc2ccc(C(C)(C)C)cc2)c1=O [Example 31, 2-(4′-(3-(1-(4-(tert-Butyl)benzyl)-4-isopropyl-5-oxo-4,5-dihydro-1H-1,2,4-triazol-3-yl)propyl)-[1,1′-biphenyl]-3-yl)acetic acid]",1960 nM
13,"CCn1c(CCCc2ccc(-c3cccc(CS(=O)(=O)NCc4ccccc4)c3)cc2)nn(Cc2ccc(C(C)(C)C)cc2)c1=O [Example 105, N-Benzyl-1-(4′-(3-(1-(4-(tert-butyl)benzyl)-4-ethyl-5-oxo-4,5-dihydro-1H-1,2,4-triazol-3-yl)propyl)-[1,1′-biphenyl]-3-yl)methanesulfonamide]",985 nM
14,"CCn1c(CCCc2ccc(-c3ccc4occ(C(=O)O)c4c3)cc2)nn(Cc2ccc(C(C)(C)C)cc2)c1=O [Example 89, 5-(4-(3-(1-(4-(tert-Butyl)benzyl)-4-ethyl-5-oxo-4,5-dihydro-1H-1,2,4-triazol-3-yl)propyl)phenyl)benzofuran-3-carboxylic acid]",251 nM
15,"CCn1c(CCCc2ccc(-c3cccc(N)n3)cc2)nn(Cc2ccc(C(C)(C)C)cc2)c1=O [Example 3, 3-(3-(4-(6-Aminopyridin-2-yl)phenyl)propyl)-1-(4-(tert-butyl)benzyl)-4-ethyl-1H-1,2,4-triazol-5(4H)-one]",271 nM
16,"CCn1c(CCCc2ccc(-c3ccc(CC(=O)O)c(OC)c3)cc2)nn(Cc2ccc(C(C)(C)C)cc2)c1=O [Example 199, 2-(4′-(3-(1-(4-(tert-Butyl)benzyl)-4-ethyl-5-oxo-4,5-dihydro-1H-1,2,4-triazol-3-yl)propyl)-3-methoxy-[1,1′-biphenyl]-4-yl)acetic acid]",292 nM
17,"CCCc1ccc(S(=O)(=O)Nc2ccc(-c3ccc(CCCc4nn(Cc5ccc(C(C)(C)C)cc5)c(=O)n4CC)cc3)nc2)cc1 [Example 71, 1-{[4-(tert-Butyl)phenyl]methyl}-4-ethyl-3-{3-[4-(5-{[(4-propylphenyl)sulfonyl]amino}(2-pyridyl))phenyl]propyl}-1,2,4-triazolin-5-one]",865 nM

# Stronger by IC50, values ahead:
row,IC50,Compound
1,136 nM,"CCn1c(CCCc2ccc(-c3ccc(NS(=O)(=O)c4ccc(OC)cc4)cn3)cc2)nn(Cc2ccc(C(C)(C)C)cc2)c1=O [Example 91, 1-{[4-(tert-Butyl)phenyl]methyl}-4-ethyl-3-{3-[4-(5-{[(4-methoxyphenyl)sulfonyl]amino}(2-pyridyl))phenyl]propyl}-1,2,4-triazolin-5-one]"
2,157 nM,"CCn1c(CCCc2ccc(-c3cc(N)ccn3)cc2)nn(Cc2ccc(C(C)(C)C)cc2)c1=O [Example 11, 3-(3-(4-(4-Aminopyridin-2-yl)phenyl)propyl)-1-(4-(tert-butyl)benzyl)-4-ethyl-1H-1,2,4-triazol-5(4H)-one]"
3,114 nM,"CCn1c(CCCc2ccc(-c3ccc(OC)c(CC(=O)O)n3)cc2)nn(Cc2ccc(C(C)(C)C)cc2)c1=O [Example 144, 2-(6-(4-(3-(1-(4-(tert-Butyl)benzyl)-4-ethyl-5-oxo-4,5-dihydro-1H-1,2,4-triazol-3-yl)propyl)phenyl)-3-methoxypyridin-2-yl)acetic acid]"
4,50 nM,"CCn1c(CCCc2ccc(-c3cnc(C4(O)COC4)s3)cc2)nn(Cc2ccc(C(C)(C)C)cc2)c1=O [Example 204, 1-(4-(tert-Butyl)benzyl)-4-ethyl-3-(3-(4-(2-(3-hydroxyoxetan-3-yl)thiazol-5-yl)phenyl)propyl)-1H-1,2,4-triazol-5(4H)-one]"
5,38 nM,"CCn1c(CCCc2ccc(-c3ccc(SC)c(CC(=O)O)c3)cc2)nn(Cc2ccc(C(C)(C)C)cc2)c1=O [Example 64, 2-(5-{4-[3-(1-{[4-(tert-Butyl)phenyl]methyl}-4-ethyl-5-oxo(1,2,4-triazolin-3-yl))propyl]phenyl}-2-methylthiophenyl)acetic acid]"
6,62 nM,"CCn1c(CCCc2ccc(-c3cccc(NS(=O)(=O)c4ccc(-c5ccc(C)cc5)cc4)n3)cc2)nn(Cc2ccc(C(C)(C)C)cc2)c1=O [Example 73, 1-{[4-(tert-Butyl)phenyl]methyl}-4-ethyl-3-(3-{4-[6-({[4-(4-methylphenyl)phenyl]sulfonyl}amino)(2-pyridyl)]phenyl}propyl)-1,2,4-triazolin-5-one]"
7,94 nM,"CCn1c(CCCc2ccc(-c3ccc(OC)c(CC(=O)O)c3)c(C)c2)nn(Cc2ccc(C(C)(C)C)cc2)c1=O [Example 157, 2-(4′-(3-(1-(4-(tert-Butyl)benzyl)-4-ethyl-5-oxo-4,5-dihydro-1H-1,2,4-triazol-3-yl)propyl)-4-methoxy-2′-methyl-[1,1′-biphenyl]-3-yl)acetic acid]"
8,12 nM,"CCn1c(CCCc2ccc(-c3ccc(OC)c(NS(=O)(=O)C4CC4)n3)cc2)nn(Cc2ccc(C(C)(C)C)cc2)c1=O [Example 190, 1-{[4-(tert-Butyl)phenyl]methyl}-4-ethyl-3-[3-(4-{6-[(cyclopropylsulfonyl)amino]-5-methoxy(2-pyridyl)}phenyl)propyl]-1,2,4-triazolin-5-one]"
9,109 nM,"CCn1c(CCCc2ccc(-c3ccc(C(F)(F)F)c(C(=O)O)c3)cc2)nn(Cc2ccc(C(C)(C)C)cc2)c1=O [Example 134, 4′-(3-(1-(4-(tert-Butyl)benzyl)-4-ethyl-5-oxo-4,5-dihydro-1H-1,2,4-triazol-3-yl)propyl)-4-(trifluoromethyl)-[1,1′-biphenyl]-3-carboxylic acid]"
